{"source": "paper PMC10824666", "about": "(Nature Cancer, 2023)", "assay_in_all_cases": "biochemical", "parameters_in_all_cases": "Eurofins DiscoverX kinase panel, competitive binding assay at 1 uM, percent of DMSO control", "details_in_all_cases": "competitive binding, percent of DMSO control", "key": {"JNK3": {"molecular_target": "T1, JNK3 (Homo sapiens, UniProt P53779)", "T1 construct": "gene MAPK10", "T1 sequence (P53779 whole entry)": "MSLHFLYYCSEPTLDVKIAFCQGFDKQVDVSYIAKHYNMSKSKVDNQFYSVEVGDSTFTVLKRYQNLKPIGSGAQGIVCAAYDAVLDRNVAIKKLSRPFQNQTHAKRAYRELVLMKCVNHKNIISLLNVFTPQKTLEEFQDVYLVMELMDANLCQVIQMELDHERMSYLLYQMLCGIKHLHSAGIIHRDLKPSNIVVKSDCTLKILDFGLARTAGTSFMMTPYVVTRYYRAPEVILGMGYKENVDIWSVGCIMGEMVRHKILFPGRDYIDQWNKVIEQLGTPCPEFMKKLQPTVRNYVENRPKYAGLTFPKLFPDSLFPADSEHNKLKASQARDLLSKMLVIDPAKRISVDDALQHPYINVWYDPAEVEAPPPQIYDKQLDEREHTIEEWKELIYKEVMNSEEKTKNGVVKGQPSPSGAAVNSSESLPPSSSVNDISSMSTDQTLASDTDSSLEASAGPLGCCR", "summary_of_the_method": "(§1)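 Competitive binding assay across a 96-kinase panel with KIF18A compounds at 1 µM; values given as percentage of control (POC), single experiment.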"}, "TAOK2": {"molecular_target": "T2, TAOK2 (Homo sapiens, UniProt Q9UL54)", "T2 sequence (Q9UL54 1-1235)": "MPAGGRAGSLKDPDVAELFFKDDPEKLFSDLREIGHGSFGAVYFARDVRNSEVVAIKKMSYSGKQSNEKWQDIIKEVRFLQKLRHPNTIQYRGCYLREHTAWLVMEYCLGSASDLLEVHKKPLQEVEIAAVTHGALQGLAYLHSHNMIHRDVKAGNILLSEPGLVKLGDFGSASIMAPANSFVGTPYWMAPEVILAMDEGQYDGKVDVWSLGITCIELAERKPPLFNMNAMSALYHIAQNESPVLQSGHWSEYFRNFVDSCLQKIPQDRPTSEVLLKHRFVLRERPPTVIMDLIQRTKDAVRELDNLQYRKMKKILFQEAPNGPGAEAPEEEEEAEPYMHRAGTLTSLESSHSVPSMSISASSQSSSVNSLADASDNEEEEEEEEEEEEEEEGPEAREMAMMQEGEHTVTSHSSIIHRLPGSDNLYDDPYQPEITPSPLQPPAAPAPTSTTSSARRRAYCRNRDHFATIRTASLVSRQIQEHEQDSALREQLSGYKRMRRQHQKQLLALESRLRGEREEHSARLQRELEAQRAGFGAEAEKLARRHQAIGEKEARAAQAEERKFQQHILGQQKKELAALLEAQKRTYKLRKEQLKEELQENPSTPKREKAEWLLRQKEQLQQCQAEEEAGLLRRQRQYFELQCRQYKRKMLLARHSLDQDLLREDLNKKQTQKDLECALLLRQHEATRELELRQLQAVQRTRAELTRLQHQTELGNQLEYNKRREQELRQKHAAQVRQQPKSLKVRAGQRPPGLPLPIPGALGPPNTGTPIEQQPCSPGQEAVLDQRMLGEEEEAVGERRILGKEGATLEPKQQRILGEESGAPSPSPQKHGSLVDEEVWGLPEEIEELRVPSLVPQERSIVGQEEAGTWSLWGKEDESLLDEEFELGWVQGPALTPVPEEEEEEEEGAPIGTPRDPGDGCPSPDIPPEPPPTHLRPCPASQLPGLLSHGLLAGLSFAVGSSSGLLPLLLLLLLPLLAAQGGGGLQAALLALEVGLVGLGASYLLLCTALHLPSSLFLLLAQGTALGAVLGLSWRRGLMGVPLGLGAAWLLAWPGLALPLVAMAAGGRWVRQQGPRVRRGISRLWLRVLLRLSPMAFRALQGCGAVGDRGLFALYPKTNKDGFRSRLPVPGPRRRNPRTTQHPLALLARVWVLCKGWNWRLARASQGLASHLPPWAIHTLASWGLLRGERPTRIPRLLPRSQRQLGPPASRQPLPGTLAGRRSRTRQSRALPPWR", "summary_of_the_method": "as §1"}, "Tyk-2": {"molecular_target": "T3, Tyk-2 (Homo sapiens, UniProt P29597)", "T3 construct": "gene TYK2", "T3 sequence (P29597 whole entry)": "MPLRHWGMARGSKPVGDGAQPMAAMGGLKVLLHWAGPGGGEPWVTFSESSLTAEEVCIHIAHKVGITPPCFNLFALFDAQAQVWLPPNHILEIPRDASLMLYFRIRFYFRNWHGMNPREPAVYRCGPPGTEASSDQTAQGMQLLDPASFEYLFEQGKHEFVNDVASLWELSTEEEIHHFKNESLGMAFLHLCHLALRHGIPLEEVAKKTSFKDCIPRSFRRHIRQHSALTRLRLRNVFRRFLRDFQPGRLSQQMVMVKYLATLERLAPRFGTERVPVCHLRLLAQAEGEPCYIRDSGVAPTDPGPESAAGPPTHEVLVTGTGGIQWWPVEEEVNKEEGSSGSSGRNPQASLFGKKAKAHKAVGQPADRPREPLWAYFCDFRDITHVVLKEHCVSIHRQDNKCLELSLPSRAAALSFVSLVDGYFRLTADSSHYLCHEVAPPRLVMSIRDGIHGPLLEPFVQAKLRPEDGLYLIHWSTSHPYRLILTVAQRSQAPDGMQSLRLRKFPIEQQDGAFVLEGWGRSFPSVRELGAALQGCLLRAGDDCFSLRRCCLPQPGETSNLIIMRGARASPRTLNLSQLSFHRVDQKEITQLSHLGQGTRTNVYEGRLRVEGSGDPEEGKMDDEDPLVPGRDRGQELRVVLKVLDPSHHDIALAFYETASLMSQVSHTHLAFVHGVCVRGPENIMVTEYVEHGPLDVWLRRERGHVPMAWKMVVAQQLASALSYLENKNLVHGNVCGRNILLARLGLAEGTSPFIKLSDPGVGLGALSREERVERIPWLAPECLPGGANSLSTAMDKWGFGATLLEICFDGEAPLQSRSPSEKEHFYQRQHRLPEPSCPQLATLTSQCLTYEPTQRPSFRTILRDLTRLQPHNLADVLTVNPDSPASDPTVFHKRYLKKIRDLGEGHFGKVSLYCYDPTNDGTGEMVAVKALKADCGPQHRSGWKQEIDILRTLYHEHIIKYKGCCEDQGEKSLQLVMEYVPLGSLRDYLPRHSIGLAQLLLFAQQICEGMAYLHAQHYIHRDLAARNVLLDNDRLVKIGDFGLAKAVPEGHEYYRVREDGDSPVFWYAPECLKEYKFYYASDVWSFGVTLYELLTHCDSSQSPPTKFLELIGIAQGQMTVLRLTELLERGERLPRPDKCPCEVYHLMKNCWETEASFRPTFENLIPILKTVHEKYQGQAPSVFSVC", "summary_of_the_method": "as §1"}, "CDK18": {"molecular_target": "CDK18 (Homo sapiens, UniProt Q07002)", "sequence (Q07002 whole entry)": "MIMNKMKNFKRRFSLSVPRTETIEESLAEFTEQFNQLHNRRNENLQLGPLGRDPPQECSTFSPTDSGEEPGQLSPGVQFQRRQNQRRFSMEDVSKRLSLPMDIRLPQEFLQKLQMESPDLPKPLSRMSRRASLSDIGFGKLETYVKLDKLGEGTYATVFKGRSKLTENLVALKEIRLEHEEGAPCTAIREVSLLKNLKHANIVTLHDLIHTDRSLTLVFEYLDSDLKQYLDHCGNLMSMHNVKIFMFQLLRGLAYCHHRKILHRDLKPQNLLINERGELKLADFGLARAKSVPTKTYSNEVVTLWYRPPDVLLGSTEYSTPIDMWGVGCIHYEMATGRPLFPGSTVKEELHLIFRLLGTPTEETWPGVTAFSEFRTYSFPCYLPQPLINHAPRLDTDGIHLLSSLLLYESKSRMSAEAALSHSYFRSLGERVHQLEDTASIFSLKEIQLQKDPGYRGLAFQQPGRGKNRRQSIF", "summary_of_the_method": "as §1"}, "[1]": {"details": "read-out: Kinome Profiling performed by Eurofins DiscoverX / AM-1882, 1.0 µM / POC"}, "[2]": {"details": "read-out: Kinome Profiling performed by Eurofins DiscoverX / AM-0277, 1.0 µM / POC"}, "[3]": {"details": "read-out: Kinome Profiling performed by Eurofins DiscoverX / AM-5308, 1.0 µM / POC"}}, "note": "Like-named read-outs stand apart in the source and are kept apart here.", "data": [{"smiles": "CC(C)(C)NS(=O)(=O)c1cccc(NC(=O)c2ccc(S(=O)(=O)NC(C)(C)C)cc2N2CCC3(CC2)CC3)c1", "note": "[AM-1882]", "values": [{"measurement": "remaining activity at 1 µM", "setting": "JNK3; [1]", "result": 82, "unit": "%"}, {"measurement": "remaining activity at 1 µM", "setting": "TAOK2; [1]", "result": 81.5, "unit": "%"}, {"measurement": "remaining activity at 1 µM", "setting": "Tyk-2; [1]", "result": 100, "unit": "%"}, {"measurement": "remaining activity at 1 µM", "setting": "CDK18; [1]", "result": 76, "unit": "%"}]}, {"smiles": "CC(C)(CO)Nc1ccc(C(=O)Nc2cccc(S(=O)(=O)C3CCCC3)c2)c(N2CCC3(CC2)CC3)n1", "note": "[AM-0277]", "values": [{"measurement": "remaining activity at 1 µM", "setting": "JNK3; [2]", "result": 100, "unit": "%"}, {"measurement": "remaining activity at 1 µM", "setting": "TAOK2; [2]", "result": 98, "unit": "%"}, {"measurement": "remaining activity at 1 µM", "setting": "Tyk-2; [2]", "result": 100, "unit": "%"}, {"measurement": "remaining activity at 1 µM", "setting": "CDK18; [2]", "result": 78, "unit": "%"}]}, {"smiles": "C[C@@H]1CN(c2cccc(NC(=O)c3ccc(NS(=O)(=O)CCO)cc3N3CCC4(CC3)CC4)n2)CCO1", "note": "[AM-5308]", "values": [{"measurement": "remaining activity at 1 µM", "setting": "JNK3; [3]", "result": 88.5, "unit": "%"}, {"measurement": "remaining activity at 1 µM", "setting": "TAOK2; [3]", "result": 81, "unit": "%"}, {"measurement": "remaining activity at 1 µM", "setting": "Tyk-2; [3]", "result": 84, "unit": "%"}, {"measurement": "remaining activity at 1 µM", "setting": "CDK18; [3]", "result": 94, "unit": "%"}]}]}
